We go through 46 compounds from patent US20200325127A1, “PYRIDIN-3-YL ACETIC ACID DERIVATIVES AS INHIBITORS OF HUMAN IMMUNODEFICIENCY VIRUS REPLICATION” (priority 2016, published 2020).

Bounds are passed on as bounds.

The first test concerns NL-RLuc virus. The test is described as follows: Inhibition of HIV replication (NL-RLuc luciferase reporter virus in MT-2 cells). In kind it is cell-based. The note with it: Human immunodeficiency virus 1, MT2, 120 h, read-out: Activity. An excerpt:
Inhibition of HIV replication: A recombinant NL-RLuc proviral clone was constructed in which a section of the nef gene from NL4-3 was replaced with the Renilla Luciferase gene. This virus is fully infectious and can undergo multiple cycles of replication in cell culture. In addition, the luciferous reporter provides a simple and easy method for quantitating the extent of virus growth and consequently, the antiviral activity of test compounds. The plasmid pNLRLuc contains the proviral NL-Rluc DNA cloned into pUC18 at the PvuII site. The NL-RLuc virus was prepared by transfection of 293T cells with the plasmid pNLRLuc. Transfections were performed using the LipofectAMINE PLUS kit from Invitrogen (Carlsbad, Calif.) according to the manufacturer and the virus generated was titered in MT-2 cells. For susceptibility analyses, the titrated virus was used to infect MT-2 cells in the presence of compound, and after 5 days of incubation, cells were processed and quantitated for virus growth by the amount of expressed luciferase. Assay media was RPMI 1640 supplemented with 10% heat inactivated fetal bovine serum (FBS), 100 units/ml penicillin G/100 units/ml streptomycin, 10 mM HEPES buffer pH 7.55 and 2 mM L-glutamine. The results from at least 2 experiments were used to calculate the EC50 values. Luciferase was quantitated using the Dual Luciferase kit from Promega (Madison, Wis.). Susceptibility of viruses to compounds was determined by incubation in the presence of serial dilutions of the compound. The 50% effective concentration (EC50) was calculated by using the exponential form of the median effect equation where (Fa)=1/[1+(ED50/drug conc.)^m](Johnson V A, Byington R T. Infectivity Assay. In Techniques in HIV Research. ed. Aldovini A, Walker B D. 71-76. New York: Stockton Press. 1990). Activity equal to A refers to a compound having an EC50≤100 nM, while B and C denote compounds having an EC50 between 100 nM and 1 uM (B) or >1 uM (C).
(In a reporter assay the amount or activity of a reporter protein is the signal.)
Regarding `COc1cc(N2CCc3cc(-c4c(C)nc(C)c([C@H](OC(C)(C)C)C(=O)O)c4N4CCC(C)(C)CC4)ccc3C2)nc(OC)n1` [Compound 14], the EC50 is less than 0.1 µM.

As for `Cc1nc(C(F)(F)F)nc(N2CCc3cc(-c4c(C)nc(C)c([C@H](OC(C)(C)C)C(=O)O)c4N4CCC(C)(C)CC4)ccc3C2)c1C` [Compound 58], the EC50 is less than 0.1 µM. On the same count and under the same terms, in the case of `Cc1nc(C)c([C@H](OC(C)(C)C)C(=O)O)c(N2CCC(C)(C)CC2)c1-c1ccc2c(c1)CCN(c1nnc(-c3ccccc3)cc1C(N)=O)C2` [Compound 9] it was less than 0.1 µM.

With `Cc1cn(-c2ccc(N3CCc4cc(-c5c(C)nc(C)c([C@H](OC(C)(C)C)C(=O)O)c5N5CCC(C)(C)CC5)ccc4C3)nn2)cn1` [Compound 69], the EC50 is less than 0.1 µM.

On to `Cc1nc(C)c([C@H](OC(C)(C)C)C(=O)O)c(N2CCC(C)(C)CC2)c1-c1ccc2c(c1)CCN(c1nc(N3CCOCC3)nc(N3CCOCC3)n1)C2` [Compound 37], for which the EC50 is less than 0.1 µM. In the case of `Cc1cc(N2CCc3cc(-c4c(C)nc(C)c([C@H](OC(C)(C)C)C(=O)O)c4N4CCC(C)(C)CC4)ccc3C2)nc(N)n1` [Compound 61], the EC50 was less than 0.1 µM. For `COc1nc(O)nc(N2CCc3cc(-c4c(C)nc(C)c([C@H](OC(C)(C)C)C(=O)O)c4N4CCC(C)(C)CC4)ccc3C2)n1` [Compound 13], the EC50 lay in the range of 0.1 to 1 µM. For `Cc1nc(C)c([C@H](OC(C)(C)C)C(=O)O)c(N2CCC(C)(C)CC2)c1-c1ccc2c(c1)CCN(c1cc(Cl)ncn1)C2` [Compound 27], the EC50 was less than 0.1 µM. For the compound `Cc1nc(C)c([C@H](OC(C)(C)C)C(=O)O)c(N2CCC(C)(C)CC2)c1-c1ccc2c(c1)CCN(c1nc3c(s1)C(=O)NCC3)C2` [Compound 4], the EC50 is less than 0.1 µM. Still for that read-out and setting: in the case of `Cc1ncnc(N2CCc3cc(-c4c(C)nc(C)c([C@H](OC(C)(C)C)C(=O)O)c4N4CCC(C)(C)CC4)ccc3C2)c1F` [Compound 24] it was less than 0.1 µM; in that of `Cc1nc(C)c([C@H](OC(C)(C)C)C(=O)O)c(N2CCC(C)(C)CC2)c1-c1ccc2c(c1)CCN(c1ncc(F)cn1)C2` [Compound 21], less than 0.1 µM.

Regarding `Cc1nc(C)c([C@H](OC(C)(C)C)C(=O)O)c(N2CCC(C)(C)CC2)c1-c1ccc2c(c1)CCN(c1nnc(-c3ccccc3)cc1C#N)C2` [Compound 68], the EC50 is less than 0.1 µM. For `CSc1nc(N2CCc3cc(-c4c(C)nc(C)c([C@H](OC(C)(C)C)C(=O)O)c4N4CCC(C)(C)CC4)ccc3C2)cc(C(F)(F)F)n1` [Compound 63], the EC50 is less than 0.1 µM. Regarding `Cc1nc(C)c([C@H](OC(C)(C)C)C(=O)O)c(N2CCC(C)(C)CC2)c1-c1ccc2c(c1)CCN(c1ccc(C(F)(F)F)nn1)C2` [Compound 35], the EC50 was less than 0.1 µM. On the same count and under the same terms, in the case of `Cc1nc(C)c([C@H](OC(C)(C)C)C(=O)O)c(N2CCC(C)(C)CC2)c1-c1ccc2c(c1)CCN(c1ncnc3c1CCCC3)C2` [Compound 15] it was less than 0.1 µM; in that of `COc1cc(N2CCc3cc(-c4c(C)nc(C)c([C@H](OC(C)(C)C)C(=O)O)c4N4CCC(C)(C)CC4)ccc3C2)nc(SC)n1` [Compound 62], less than 0.1 µM; in that of `Cc1nc(C)c([C@H](OC(C)(C)C)C(=O)O)c(N2CCC(C)(C)CC2)c1-c1ccc2c(c1)CCN(c1cc(C3CC3)ncn1)C2` [Compound 43], less than 0.1 µM. Turning to `Cc1nc(C)c([C@H](OC(C)(C)C)C(=O)O)c(N2CCC(C)(C)CC2)c1-c1ccc2c(c1)CCN(c1nccc(N3CCOCC3)n1)C2` [Compound 10], the EC50 is less than 0.1 µM. On to `COc1nccc(N2CCc3cc(-c4c(C)nc(C)c([C@H](OC(C)(C)C)C(=O)O)c4N4CCC(C)(C)CC4)ccc3C2)n1` [Compound 40], for which the EC50 is less than 0.1 µM. As for `Cc1nc(C)c([C@H](OC(C)(C)C)C(=O)O)c(N2CCC(C)(C)CC2)c1-c1ccc2c(c1)CCN(c1nccs1)C2` [Compound 6], the EC50 is less than 0.1 µM. On the same count and under the same terms, for `Cc1nc(C)c([C@H](OC(C)(C)C)C(=O)O)c(N2CCC(C)(C)CC2)c1-c1ccc2c(c1)CCN(c1nccc(C#N)n1)C2` [Compound 26] the value was less than 0.1 µM. Same read-out and setting: for `Cc1nc(C)c([C@H](OC(C)(C)C)C(=O)O)c(N2CCC(C)(C)CC2)c1-c1ccc2c(c1)CCN(c1ccnc(N)n1)C2` [Compound 67] the value was less than 0.1 µM; for `Cc1nc(C)c([C@H](OC(C)(C)C)C(=O)O)c(N2CCC(C)(C)CC2)c1-c1ccc2c(c1)CCN(c1cc(N)ncn1)C2` [Compound 42], less than 0.1 µM.

Take `Cc1nc(C)c([C@H](OC(C)(C)C)C(=O)O)c(N2CCC(C)(C)CC2)c1-c1ccc2c(c1)CCN(c1ncccc1C(=O)O)C2` [Compound 16]: the EC50 fell in the range of 0.1 to 1 µM. With `Cc1nc(C)c([C@H](OC(C)(C)C)C(=O)O)c(N2CCC(C)(C)CC2)c1-c1ccc2c(c1)CCN(c1ncncc1-c1ccccc1)C2` [Compound 38], the EC50 was less than 0.1 µM.

Turning to `COc1cc(N2CCc3cc(-c4c(C)nc(C)c([C@H](OC(C)(C)C)C(=O)O)c4N4CCC(C)(C)CC4)ccc3C2)ncn1` [Compound 31], the EC50 was less than 0.1 µM. On the same count and under the same terms, in the case of `Cc1nccc(N2CCc3cc(-c4c(C)nc(C)c([C@H](OC(C)(C)C)C(=O)O)c4N4CCC(C)(C)CC4)ccc3C2)n1` [Compound 41] it was less than 0.1 µM; in that of `Cc1nc(C)c([C@H](OC(C)(C)C)C(=O)O)c(N2CCC(C)(C)CC2)c1-c1ccc2c(c1)CCN(c1ncc(Cl)cn1)C2` [Compound 23], less than 0.1 µM.

For the compound `CCc1ccnc(N2CCc3cc(-c4c(C)nc(C)c([C@H](OC(C)(C)C)C(=O)O)c4N4CCC(C)(C)CC4)ccc3C2)n1` [Compound 32], the EC50 is less than 0.1 µM. On to `Cc1nc(C)c([C@H](OC(C)(C)C)C(=O)O)c(N2CCC(C)(C)CC2)c1-c1ccc2c(c1)CCN(c1ccccn1)C2` [Compound 46], for which the EC50 is less than 0.1 µM. Same read-out and setting: for `Cc1nc(C)c([C@H](OC(C)(C)C)C(=O)O)c(N2CCC(C)(C)CC2)c1-c1ccc2c(c1)CCN(c1nnnn1-c1ccccc1)C2` [Compound 1] the value was less than 0.1 µM. Still for that read-out and setting: for `CNc1nccc(N2CCc3cc(-c4c(C)nc(C)c([C@H](OC(C)(C)C)C(=O)O)c4N4CCC(C)(C)CC4)ccc3C2)n1` [Compound 36] the value was less than 0.1 µM; for `Cc1nc(C)c([C@H](OC(C)(C)C)C(=O)O)c(N2CCC(C)(C)CC2)c1-c1ccc2c(c1)CCN(c1nccc(C(F)(F)F)n1)C2` [Compound 11], less than 0.1 µM; for `Cc1nc(C)c([C@H](OC(C)(C)C)C(=O)O)c(N2CCC(C)(C)CC2)c1-c1ccc2c(c1)CCN(c1cc(N3CCCC3)ncn1)C2` [Compound 48], less than 0.1 µM. On the same count and under the same terms, for `COc1cc(N2CCc3cc(-c4c(C)nc(C)c([C@H](OC(C)(C)C)C(=O)O)c4N4CCC(C)(C)CC4)ccc3C2)nc(N)n1` [Compound 56] the value was less than 0.1 µM. Regarding `Cc1nc(C)c([C@H](OC(C)(C)C)C(=O)O)c(N2CCC(C)(C)CC2)c1-c1ccc2c(c1)CCN(c1ncnc(N)c1C)C2` [Compound 55], the EC50 was less than 0.1 µM.

The same test, now with this note: Human immunodeficiency virus 1, MT2, 120 h, read-out: EC50 μM.
As for `Cc1nc(C)c([C@H](OC(C)(C)C)C(=O)O)c(N2CCC(C)(C)CC2)c1-c1ccc2c(c1)CCN(c1ccnc3cccnc13)C2` [Compound 88], the EC50 was determined as 0.001 µM. Still for that read-out and setting: for `Cc1nc(C)c([C@H](OC(C)(C)C)C(=O)O)c(N2CCC(C)(C)CC2)c1-c1ccc2c(c1)CCN(c1nccc3ncncc13)C2` [Compound 86] the value was 0.001 µM.

For `COc1nc(O)nc(N2CCc3cc(-c4c(C)nc(C)c([C@H](OC(C)(C)C)C(=O)O)c4N4CCC(C)(C)CC4)ccc3C2)n1` [Compound 13], the EC50 came out at 0.278 µM.

Turning to `Cc1nc(C)c([C@H](OC(C)(C)C)C(=O)O)c(N2CCC(C)(C)CC2)c1-c1ccc2c(c1)CCN(c1ccc(C(F)(F)F)nn1)C2` [Compound 35], the EC50 is 0.01 µM. Same read-out and setting: in the case of `Cc1nc(C)c([C@H](OC(C)(C)C)C(=O)O)c(N2CCC(C)(C)CC2)c1-c1ccc2c(c1)CCN(c1ncc3ccccc3n1)C2` [Compound 73] it was 0.002 µM; in that of `COc1cc(N2CCc3cc(-c4c(C)nc(C)c([C@H](OC(C)(C)C)C(=O)O)c4N4CCC(C)(C)CC4)ccc3C2)nc(SC)n1` [Compound 62], 0.004 µM; in that of `Cc1nc(C)c([C@H](OC(C)(C)C)C(=O)O)c(N2CCC(C)(C)CC2)c1-c1ccc2c(c1)CCN(c1ncnc3ccc(F)cc13)C2` [Compound 85], 0.002 µM. Still for that read-out and setting: in the case of `COc1nccc(N2CCc3cc(-c4c(C)nc(C)c([C@H](OC(C)(C)C)C(=O)O)c4N4CCC(C)(C)CC4)ccc3C2)n1` [Compound 40] it was 0.002 µM; in that of `COc1ccc2cnc(N3CCc4cc(-c5c(C)nc(C)c([C@H](OC(C)(C)C)C(=O)O)c5N5CCC(C)(C)CC5)ccc4C3)nc2c1` [Compound 74], 0.006 µM. In the case of `COc1ccc2ncnc(N3CCc4cc(-c5c(C)nc(C)c([C@H](OC(C)(C)C)C(=O)O)c5N5CCC(C)(C)CC5)ccc4C3)c2c1` [Compound 81], the EC50 was 0.002 µM. The same measure, in the same setting: for `Cc1nc(C)c([C@H](OC(C)(C)C)C(=O)O)c(N2CCC(C)(C)CC2)c1-c1ccc2c(c1)CCN(c1nccs1)C2` [Compound 6] the value was 0.007 µM; for `COc1ccc2c(N3CCc4cc(-c5c(C)nc(C)c([C@H](OC(C)(C)C)C(=O)O)c5N5CCC(C)(C)CC5)ccc4C3)ncnc2c1` [Compound 80], 0.001 µM; for `Cc1nc(C)c([C@H](OC(C)(C)C)C(=O)O)c(N2CCC(C)(C)CC2)c1-c1ccc2c(c1)CCN(c1nnnn1-c1ccccc1)C2` [Compound 1], 0.006 µM. On the same count and under the same terms, for `Cc1nc(C)c([C@H](OC(C)(C)C)C(=O)O)c(N2CCC(C)(C)CC2)c1-c1ccc2c(c1)CCN(c1cc(N3CCCC3)ncn1)C2` [Compound 48] the value was 0.003 µM; for `Cc1nc(C)c([C@H](OC(C)(C)C)C(=O)O)c(N2CCC(C)(C)CC2)c1-c1ccc2c(c1)CCN(c1ccc3cnccc3n1)C2` [Compound 70], 0.0005 µM.

Consider `Cc1nc(C)c([C@H](OC(C)(C)C)C(=O)O)c(N2CCC(C)(C)CC2)c1-c1ccc2c(c1)CCN(c1nccc3cccnc13)C2` [Compound 77], for which the EC50 is 0.002 µM. Consider `Cc1nc(C)c([C@H](OC(C)(C)C)C(=O)O)c(N2CCC(C)(C)CC2)c1-c1ccc2c(c1)CCN(c1ncnc(N)c1C)C2` [Compound 55], for which the EC50 was 0.004 µM.

For the compound `Cc1nc(C)c([C@H](OC(C)(C)C)C(=O)O)c(N2CCC(C)(C)CC2)c1-c1ccc2c(c1)CCN(c1ncnc3ccccc13)C2` [Compound 76], the EC50 is 0.002 µM.
